From patent US9586896B2, “Nitroxyl donors with improved therapeutic index” (Cardioxyl Pharmaceuticals, Inc., priority 2013, dated 2017)

Legend:
[1] = In vitro stability (half-life) in human plasma; assay type: in vitro ADME; settings: male, pH 7.4, human plasma pH 7.4, anticoagulant, 37° C., read-out: T1/2 (minutes) Human
Method: Compound (1), compound (2), and CXL-1020 were tested for their stability in plasma. The assay system comprised (i) PBS, or plasma from rat, dog or human (at least 3 donors, male, pooled) at pH 7.4, and (ii) for tests conducted in plasma, an anticoagulant (sodium heparin or sodium citrate). Each test compound (5 μM) was incubated in PBS or plasma at 37° C. on a THERMOMIXER® with shaking Three samples (n=3) were taken at each of seven sampling time points: 0, 10, 30, 60, 90, 180 and 360 minutes. The samples were immediately combined with 3 volumes (i.e., 3 times the volume of PBS or plasma) of acetonitrile containing 1% formic acid and an internal standard to terminate the reaction. AB SCIEX API 3000 LC-MS/MS analysis of the test compounds was performed without a standard curve. Half-lives (T1/2) of the test compounds were determined from graphs of the percent remaining values using the peak area response ratio.

[2] = tested on: beagle dogs; test: 24-hour continuous infusion, canine peripheral (cephalic) vein model, clinical pathology; assay type: in vivo; settings: for NOAEL (μg/kg/min), clinical pathology markers: 24 hour i.v. infusion, CAPTISOL 7% w/v pH 4, WBC, fibrinogen, CRP, molar equivalent dose rates to CXL-1020
Method: After 24 hours of infusion, clinical pathology changes similar to those observed in previous studies using an implanted central catheter were detected.
Studies were conducted in male and female beagle dogs. Animals were allowed free access to drinking water and a commercial canine diet under standard laboratory conditions. Animals were fasted prior to blood sample collections when indicated by the study protocol. Fluorescent lighting was provided via an automatic timer for approximately 12 hours per day. On occasion, the dark cycle was interrupted intermittently due to study-related activities. Temperature and humidity were monitored and recorded daily and maintained to the maximum extent possible between 64° F. to 84° F. and 30% to 70%, respectively. The dogs were acclimated for a period of at least 1 week. During this period, the animals were weighed weekly and observed with respect to general health and any signs of disease. The animals were acclimated to wearing a jacket for at least three days prior to dose administration. Additionally, the animals were also acclimated to wearing an Elizabethan collar (e-collar) during the jacket acclimation.
Animals were catheterized the day prior to dose administration. A percutaneous catheter was placed (using aseptic technique and sterile bandaging) in the cephalic vein distal to the elbow. The animals were free-moving in their cages during continuous infusion dose administration. To facilitate continuous infusion dose administration, the peripheral catheter was attached to an extension set routed underneath a canine jacket and then attached to a tether infusion system. To prevent the animals from accessing/removing the peripherally placed percutaneous catheter, the catheterization site was bandaged using Vet Wrap and an e-collar was placed on the animals for the duration of the treatment (i.e., the catheterized period). During the pretreatment period, the venous catheter was infused continuously at a rate of approximately 2-4 mL/hr with 0.9% sodium chloride for injection, USP (saline) to maintain catheter patency. Prior to dosing, the infusion system was pre-filled (slow bolus infusion) with the respective dosing solution to ensure that dosing began as soon as the infusion pump was started. The infusion line was connected to a reservoir containing the control or test compound and the infusion was started. Test compositions were infused continuously, at a predetermined constant infusion rate (1 or 2 mL/kg/hr), for 24 hours and were compared at molar equivalent dose rates.
A detailed clinical examination of each animal was performed twice daily and body temperature measurements and blood samples for clinical pathology were collected from all animals pre-dose and 6 hours, 12 hours, 24 hours and 72 hours post start of composition infusion. At the termination of the study, all animals were euthanized at their scheduled necropsy and complete necropsy examinations were performed. Selected tissues were collected, fixed and stored for potential future microscopic examination. The cephalic vein containing the infusion catheter was dissected intact along with the brachial vein and examined along its entire length. The location of the catheter tip was marked on the unfixed specimen. […]

[3] = dogs, percutaneous catheter in cephalic vein

Row | Compound | half-life at 5 μM [1] [min] | NOAEL (μg/kg/min), clinical pathology markers ([2]; dogs) [μg/kg/min] | finding after 6 hours of infusion [2, 3] | microscopic pathology after 24 hours of infusion [2, 3] | improvement in NOAEL relative to CXL-1020 ([2]; clinical pathology markers) [fold]
1 | CS(=O)(=O)c1cccc(S(=O)(=O)NO)c1 [(2), N-Hydroxy-3-methanesulfonylbenzene-1-sulfonamide] | ~37 | 3 | – | – | –
2 | CS(=O)(=O)c1ccccc1S(=O)(=O)NO [CXL-1020, N-hydroxy-2-methanesulfonylbenzene-1-sulfonamide] | 2 | <0.03 | significant edema was observed in the upper forelimb | severe thrombophlebitis at the catheter tip | –
3 | Cc1ccc(S(=O)(=O)NO)o1 [Compound (1), N-Hydroxy-5-methylfuran-2-sulfonamide] | ~65 | – | – | – | > 660
